PubChem BioAssay (NCI)
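Cells were grown in 96-well plates and exposed to each compound for 48 hours at five concentrations; endpoints were interpolated linearly between bracketing concentrations, or set to the highest concentration if not reached. Here, GI50 denotes the concentration required for 50% inhibition of growth. TGI: concentration producing complete growth inhibition.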

Assays:
Assay in all cases: NCI-60 cell line screen, 48 h; in the data active means GI50 below about 0.43 µM; inactive means the rest
HT29 colon = test system: HT29 colon
A549 NSCLC = test system: A549 NSCLC
SK-MEL-28 melanoma = test system: SK-MEL-28 melanoma
HS 578T breast = test system: HS 578T breast
HCT-116 colon = test system: HCT-116 colon
MDA-MB-231 breast = test system: MDA-MB-231 breast
NCI-H460 lung = test system: NCI-H460 lung
OVCAR-4 ovarian = test system: OVCAR-4 ovarian
SN12C renal = test system: SN12C renal
MALME-3M melanoma = test system: MALME-3M melanoma
HCC-2998 colon = test system: HCC-2998 colon
ACHN renal = test system: ACHN renal
IGROV1 ovarian = test system: IGROV1 ovarian
PC-3 prostate = test system: PC-3 prostate
SNB-19 CNS = test system: SNB-19 CNS
SF-539 CNS = test system: SF-539 CNS
COLO 205 colon = test system: COLO 205 colon
SK-MEL-5 melanoma = test system: SK-MEL-5 melanoma
NCI-H522 lung = test system: NCI-H522 lung
TK-10 renal = test system: TK-10 renal
HCT-15 colon = test system: HCT-15 colon
OVCAR-3 ovarian = test system: OVCAR-3 ovarian
CCRF-CEM leukemia = test system: CCRF-CEM leukemia
RXF 393 renal = test system: RXF 393 renal
A498 renal = test system: A498 renal
SW-620 colon = test system: SW-620 colon
T-47D breast = test system: T-47D breast
MOLT-4 leukemia = test system: MOLT-4 leukemia
BT-549 breast = test system: BT-549 breast
NCI/ADR-RES ovarian = test system: NCI/ADR-RES ovarian
UACC-62 melanoma = test system: UACC-62 melanoma
786-0 renal = test system: 786-0 renal
SK-MEL-2 melanoma = test system: SK-MEL-2 melanoma
UO-31 renal = test system: UO-31 renal
U251 CNS = test system: U251 CNS
DU-145 prostate = test system: DU-145 prostate
LOX IMVI melanoma = test system: LOX IMVI melanoma
CAKI-1 renal = test system: CAKI-1 renal
KM12 colon = test system: KM12 colon
UACC-257 melanoma = test system: UACC-257 melanoma
MCF7 breast = test system: MCF7 breast
SK-OV-3 ovarian = test system: SK-OV-3 ovarian
OVCAR-5 ovarian = test system: OVCAR-5 ovarian
K-562 leukemia = test system: K-562 leukemia
OVCAR-8 ovarian = test system: OVCAR-8 ovarian
SF-268 CNS = test system: SF-268 CNS
RPMI-8226 leukemia = test system: RPMI-8226 leukemia
HOP-92 NSCLC = test system: HOP-92 NSCLC
MDA-MB-435 = test system: MDA-MB-435
NCI-H23 lung = test system: NCI-H23 lung
SF-295 CNS = test system: SF-295 CNS
NCI-H226 lung = test system: NCI-H226 lung
EKVX NSCLC = test system: EKVX NSCLC
HOP-62 NSCLC = test system: HOP-62 NSCLC

CCOC(=O)Cc1csc(Nc2nc(O)c(C3=c4ccccc4=NC3=O)s2)n1
53.2 µM: TGI (RPMI-8226 leukemia)
52.3 µM: TGI (HOP-92 NSCLC)
50.8 µM: TGI (CCRF-CEM leukemia)
72.1 µM: TGI (MDA-MB-231 breast)
78.4 µM: TGI (MALME-3M melanoma)
inactive: GI50 (HT29 colon) 46 µM | GI50 (A549 NSCLC) 32.4 µM | GI50 (SK-MEL-28 melanoma) 45.7 µM | GI50 (HS 578T breast) 47 µM | GI50 (HCT-116 colon) 13.6 µM | GI50 (MDA-MB-231 breast) 29.1 µM | GI50 (NCI-H460 lung) 21.6 µM | GI50 (OVCAR-4 ovarian) 42.3 µM | GI50 (SN12C renal) 28 µM | GI50 (MALME-3M melanoma) 25.5 µM | GI50 (HCC-2998 colon) 29.8 µM | GI50 (ACHN renal) 23 µM | GI50 (IGROV1 ovarian) 27.2 µM | GI50 (PC-3 prostate) 30.8 µM | GI50 (SNB-19 CNS) 38.4 µM | GI50 (SF-539 CNS) 60 µM | GI50 (COLO 205 colon) 47.1 µM | GI50 (SK-MEL-5 melanoma) 28.5 µM | GI50 (NCI-H522 lung) 27.2 µM | GI50 (TK-10 renal) 44.7 µM | GI50 (HCT-15 colon) 27.4 µM | GI50 (OVCAR-3 ovarian) 26.9 µM | GI50 (CCRF-CEM leukemia) 21.1 µM | GI50 (RXF 393 renal) 41.3 µM | GI50 (A498 renal) 31.6 µM | GI50 (SW-620 colon) 68.5 µM | GI50 (T-47D breast) 54.4 µM | GI50 (MOLT-4 leukemia) 36.7 µM | GI50 (BT-549 breast) 92.3 µM | GI50 (NCI/ADR-RES ovarian) 55.6 µM | GI50 (UACC-62 melanoma) 15.7 µM | GI50 (786-0 renal) 21.7 µM | GI50 (SK-MEL-2 melanoma) 25.7 µM | GI50 (UO-31 renal) 23 µM | GI50 (U251 CNS) 19.2 µM | GI50 (DU-145 prostate) 24.6 µM | GI50 (LOX IMVI melanoma) 22.1 µM | GI50 (CAKI-1 renal) 24.3 µM | GI50 (KM12 colon) 20.4 µM | GI50 (UACC-257 melanoma) 76.9 µM | GI50 (MCF7 breast) 85.5 µM | GI50 (SK-OV-3 ovarian) 31.1 µM | GI50 (OVCAR-5 ovarian) 43.6 µM | GI50 (K-562 leukemia) 37.2 µM | GI50 (OVCAR-8 ovarian) 43.7 µM | GI50 (SF-268 CNS) 34.6 µM | GI50 (RPMI-8226 leukemia) 20.9 µM | GI50 (HOP-92 NSCLC) 22.2 µM | GI50 (MDA-MB-435) 40.9 µM | GI50 (NCI-H23 lung) 56 µM | GI50 (SF-295 CNS) 32.1 µM | GI50 (NCI-H226 lung) 21.3 µM | GI50 (EKVX NSCLC) 77.6 µM | GI50 (HOP-62 NSCLC) 20.6 µM
39.6 µM: TGI (U251 CNS)
47.3 µM: TGI (ACHN renal)
75.3 µM: TGI (SF-295 CNS)
56.7 µM: TGI (DU-145 prostate)
34.6 µM: TGI (UACC-62 melanoma)
39.5 µM: TGI (HOP-62 NSCLC)
68.9 µM: TGI (KM12 colon)
88.9 µM: TGI (MOLT-4 leukemia)
42.8 µM: TGI (NCI-H226 lung)
> 100 µM: TGI (HT29 colon) | TGI (A549 NSCLC) | TGI (SK-MEL-28 melanoma) | TGI (HS 578T breast) | TGI (OVCAR-4 ovarian) | TGI (HCC-2998 colon) | TGI (PC-3 prostate) | TGI (SNB-19 CNS) | TGI (SF-539 CNS) | TGI (COLO 205 colon) | TGI (SK-MEL-5 melanoma) | TGI (TK-10 renal) | TGI (HCT-15 colon) | TGI (RXF 393 renal) | TGI (SW-620 colon) | TGI (T-47D breast) | TGI (BT-549 breast) | TGI (NCI/ADR-RES ovarian) | TGI (SK-MEL-2 melanoma) | TGI (UACC-257 melanoma) | TGI (MCF7 breast) | TGI (OVCAR-5 ovarian) | TGI (K-562 leukemia) | TGI (OVCAR-8 ovarian) | TGI (SF-268 CNS) | TGI (MDA-MB-435) | TGI (NCI-H23 lung) | TGI (EKVX NSCLC)
43.2 µM: TGI (786-0 renal)
65.2 µM: TGI (NCI-H460 lung)
98.2 µM: TGI (SN12C renal)
67.6 µM: TGI (SK-OV-3 ovarian)
26.5 µM: TGI (HCT-116 colon)
61.5 µM: TGI (OVCAR-3 ovarian)
69 µM: TGI (IGROV1 ovarian)
51.6 µM: TGI (UO-31 renal)
57.2 µM: TGI (CAKI-1 renal)
54.2 µM: TGI (LOX IMVI melanoma)
97.6 µM: TGI (NCI-H522 lung)
77.7 µM: TGI (A498 renal)
